Test results published in EPA's aquatic toxicity sets.

These molecules were tested on Pimephales promelas (assay: 96 h LC50 (-log10 mol/L); higher = more toxic).

Point of comparison: `Cc1ccc(C)c(C)c1`, “96 h LC50 (-log10 mol/L)” value 4.19. Against it:
- O=[N+]([O-])c1cccc2ccccc12 — higher, 4.53
- CN(C)c1ccccn1 — lower, 2.98
- CCCCCCC1CCC(=O)O1 (configuration not stated) — lower, 3.98
- O=Cc1cc(Br)ccc1O — higher, 5.19
- C#CC(C)O (configuration not stated) — lower, 3.78
- Cc1nc(C)c(C)o1 — lower, 2.4
- Cc1ccc(C)c(O)c1C — within 0.2 log units, 4.22
- Nc1ccc(Br)cc1 — lower, 3.56

Each molecule was assayed on Tetrahymena pyriformis (assay: 48 h IGC50 (-log10 mol/L); higher = more toxic).

Point of comparison: `Cc1nc(C)c(C)o1`, “48 h IGC50 (-log10 mol/L)” value 1.99. Against it:
- O=[N+]([O-])c1cccc2ccccc12 — higher, 4
- CN(C)c1ccccn1 — higher, 2.45
- CCCCCCC1CCC(=O)O1 (configuration not stated) — higher, 3.49
- O=Cc1cc(Br)ccc1O — higher, 4.11
- C#CC(C)O (configuration not stated) — higher, 2.6
- Cc1ccc(C)c(C)c1 — higher, 3.78
- Cc1ccc(C)c(O)c1C — higher, 3.28
- Nc1ccc(Br)cc1 — higher, 4.01

Each molecule was assayed on Daphnia magna (assay: 48 h LC50 (-log10 mol/L); higher = more toxic).

Point of comparison: `CC1=CCC2CC1C2(C)C` (configuration not stated), “48 h LC50 (-log10 mol/L)” value 3.52. Against it:
- CCCCCCCCCC — higher, 5.3
- CC[C@H]1OC(=O)[C@H](C)[C@@H](O[C@H]2C[C@@](C)(OC)[C@@H](O)[C@H](C)O2)[C@H](C)[C@@H](O[C@@H]2O[C@H](C)C[C@H](N(C)C)[C@H]2O)[C@](C)(OC)C[C@@H](C)C(=O)[C@H](C)[C@@H](O)[C@]1(C)O — higher, 4.6
- CCNc1nc(Cl)nc(NC(C)(C)C#N)n1 — higher, 6.45
- c1ccc2cnccc2c1 — within 0.2 log units, 3.71
- CCCN(CCC)C(=O)SCC — higher, 4.61
- COCC(C)O (configuration not stated) — lower, 0.59
- CN(C)C(=N)N=C(N)N — lower, 1.98
- CC(C)CC[C@@H](O)[C@](C)(O)[C@H]1CC[C@@]2(O)C3=CC(=O)[C@@H]4C[C@@H](O)[C@@H](O)C[C@]4(C)[C@H]3CC[C@]12C — higher, 6.42
- Clc1ccc(Cl)c(-c2cc(Cl)ccc2Cl)c1 — higher, 6.99
- N#Cc1ncccn1 — within 0.2 log units, 3.34
- CC[C@H]1OC(=O)[C@H](C)[C@@H](O[C@H]2C[C@@](C)(OC)[C@@H](O)[C@H](C)O2)[C@H](C)[C@@H](O[C@@H]2O[C@H](C)C[C@H](N(C)C)[C@H]2O)[C@](C)(O)C[C@@H](C)C(=O)[C@H](C)[C@@H](O)[C@]1(C)O — lower, 3.28
- NC(=O)N1c2ccccc2C=Cc2ccccc21 — higher, 4.23
- CCOc1cc(NC(C)=O)ccc1C(=O)OC — lower, 3.07
- O=S1(=O)c2ccccc2-c2ccccc21 — higher, 4.57
- COc1ccc2cc([C@H](C)C(=O)O)ccc2c1 — higher, 3.79
- FC(F)C(F)(F)OCC(Cn1cncn1)c1ccc(Cl)cc1Cl (configuration not stated) — higher, 4.71
- NC[C@@H]1O[C@H](O[C@H]2[C@@H](O)[C@H](O[C@@H]3[C@@H](O)[C@H](N)C[C@H](N)[C@H]3O[C@H]3O[C@H](CO)[C@@H](O)[C@H](O)[C@H]3N)O[C@@H]2CO)[C@H](N)[C@@H](O)[C@@H]1O — lower, 3.09
- CCCCOCCOCCOCc1cc2c(cc1CCC)OCO2 — higher, 5.29
- C1CCCC1 — higher, 3.81
- COc1ccccc1 — within 0.2 log units, 3.43
- Cc1ccc(C(C)C)cc1 — higher, 4.32
- Oc1ccc(Cl)cc1Cl — higher, 4.8
- c1ccc(NNc2ccccc2)cc1 — higher, 4.65
- CC1(C)[C@H](/C=C(\Cl)C(F)(F)F)[C@@H]1C(=O)O[C@@H](C#N)c1cccc(Oc2ccccc2)c1 — higher, 8.68
- Cc1nc(N(C)C)nc(OC(=O)N(C)C)c1C — higher, 7.04
- COc1ccc(NC(=O)N(C)C)cc1Cl — lower, 3.15
- O=C(O)c1cc(Oc2ccc(C(F)(F)F)cc2Cl)ccc1[N+](=O)[O-] — higher, 4.26
- O=[N+]([O-])c1ccc(Cl)cc1 — higher, 4.31
- COC(=O)Nc1cccc(OC(=O)Nc2cccc(C)c2)c1 — higher, 4.65
- O=S(=O)(c1ccc(Cl)cc1)c1cc(Cl)c(Cl)cc1Cl — higher, 4.71
- FCC(F)(F)F — lower, 2.02
- CC1(C)[C@@H]2CC[C@@]1(C)[C@H](OC(=O)CSC#N)C2 — higher, 6.47
- Oc1cc(Cl)c(Cl)c(Cl)c1 — higher, 5.46
- Clc1ccc(-c2ccccc2)cc1 — higher, 5.63
- Cc1cc(Cl)cc(Cl)c1O — higher, 5.63
- O=c1ccc2ccccc2o1 — higher, 4.03
- Oc1cc(Cl)ccc1Oc1ccc(Cl)cc1Cl — higher, 6.11
- C1CCNCC1 — higher, 3.93
- c1ccc2c(c1)ccc1ccccc12 — higher, 5.41
- CC1(C)[C@H](C(=O)O[C@H](C#N)c2cccc(Oc3ccccc3)c2)[C@@H]1C(Br)C(Br)(Br)Br (some centres not stated) — higher, 9.95
- CC1=CC(=O)C(C)=C(C)C1=O — higher, 5
- CC(C)NCC(O)COc1ccc(CC(N)=O)cc1 (configuration not stated) — higher, 3.9
- CC(c1ccc(Cl)cc1)c1ccc(Cl)cc1 — higher, 6.86
- CN=C(NC#N)NCCSCc1nc[nH]c1C — lower, 2.53
- C=C1C[C@]23C[C@@]1(O)CC[C@H]2[C@@]12C=C[C@H](O)[C@@](C)(C(=O)O1)[C@H]2[C@@H]3C(=O)O — higher, 4.19
- CCc1ccccc1N — higher, 4.18
- ClCCOCCCl — lower, 2.78
- CCOP(=O)(OCC)OC(=CCl)c1ccc(Cl)cc1Cl — higher, 6.56
- O=C1CN=C(c2ccccc2Cl)c2cc([N+](=O)[O-])ccc2N1 — higher, 4.02
- O=C(O)/C=C\C(=O)O — lower, 2.76
- CCCCNC(=O)OCC#CI — higher, 6.85
- CCC(CC)Nc1c([N+](=O)[O-])cc(C)c(C)c1[N+](=O)[O-] — higher, 3.73
- Cc1ccc(Cl)cc1 — higher, 4.93
- CC(C)(C)[C@H](O)[C@H](Cc1ccc(Cl)cc1)n1cncn1 — higher, 4.01
- Cn1cc(-c2ccccc2)c(=O)c(-c2cccc(C(F)(F)F)c2)c1 — higher, 4.9
- CC(C)(Oc1ccc(Cl)cc1)C(=O)O — within 0.2 log units, 3.47
- O=C1CNC(=S)N1 — higher, 3.77
- CC(Cc1ccc(C(C)(C)C)cc1)CN1C[C@@H](C)O[C@@H](C)C1 (some centres not stated) — higher, 5.1
- S=P(N1CC1)(N1CC1)N1CC1 — lower, 2.54
- CCOP(=S)(OCC)OP(=S)(OCC)OCC — higher, 9.15
- Clc1cc(Cl)c(-c2ccccc2)cc1Cl — higher, 5.64
- c1ccc2c(c1)ccc1oc3ccccc3c12 — higher, 4.74
- c1ccc2sc(SSc3nc4ccccc4s3)nc2c1 — within 0.2 log units, 3.62
- CN(C)C(N)=S — within 0.2 log units, 3.39
- CCCC1COC(Cn2cncn2)(c2ccc(Cl)cc2Cl)O1 (configuration not stated) — higher, 4.72
- O=C(NC(=O)c1c(F)cccc1F)Nc1ccc(Cl)cc1 — higher, 7.8
- CCc1nc(N)nc(N)c1-c1ccc(Cl)cc1 — higher, 4.63
- C1=CCCCC1 — higher, 3.94
- CCNC(=S)Nc1ccccc1 — within 0.2 log units, 3.35
- COc1c(C(C)(C)C)cc([N+](=O)[O-])c(C)c1[N+](=O)[O-] — higher, 5.64
- CC(=O)CC(c1ccccc1)c1c(O)c2ccccc2oc1=O (configuration not stated) — lower, 2.96
- CCOP(=O)(NC(C)C)Oc1ccc(SC)c(C)c1 (configuration not stated) — higher, 8.11
- CCCCCOC(=O)Nc1nc(=O)n([C@@H]2O[C@H](C)[C@@H](O)[C@H]2O)cc1F — lower, 2.63
- O=NN(c1ccccc1)c1ccccc1 — higher, 4.4
- CN(C)C(=S)N(C)C — lower, 2.23
- CCCS — higher, 6.1
- NC(=O)N/N=C/c1ccc([N+](=O)[O-])o1 — higher, 3.84
- BrC=C(Br)Br — higher, 4.33
- Cc1ccc(Cl)cc1[N+](=O)[O-] — higher, 4.27
- Cc1ncc2n1-c1ccc(Cl)cc1C(c1ccccc1F)=NC2 — higher, 6.21
- ClCC1CO1 (configuration not stated) — within 0.2 log units, 3.59
- c1cc2ccc3cccc4ccc(c1)c2c34 — higher, 6.17
- CC(C)CCCCCCCCCCNCCCCCCCCCCC(C)C — higher, 6.54
- c1ccc2c(c1)sc1ccccc12 — higher, 5.6
- Nc1nc(=S)c2[nH]cnc2[nH]1 — higher, 4.01
- Cc1ccc(C(=O)c2cc(O)c(O)c([N+](=O)[O-])c2)cc1 — higher, 4.14
- Clc1ccc(-c2ccc(Cl)c(Cl)c2Cl)c(Cl)c1Cl — higher, 8.78
- NNC(=O)c1ccncc1 — higher, 3.77
